Experimental data: ChEMBL document CHEMBL1201862, “PubChem BioAssay data set” (2004)
Activity calls are given as the source filed them.

Key:
Vero = experiment: cells; format: functional; settings: Chlorocebus sabaeus
[1] = target: T1, Short transient receptor potential channel 4 (Mus musculus, UniProt Q9QUQ5); experiment: mouse TRPC4 channel activators, dose response, cell-based, HEK293 TRPC4/mu-opioid, Fluo-4 calcium (AID 434937); format: functional
T1 sequence (Q9QUQ5 whole entry): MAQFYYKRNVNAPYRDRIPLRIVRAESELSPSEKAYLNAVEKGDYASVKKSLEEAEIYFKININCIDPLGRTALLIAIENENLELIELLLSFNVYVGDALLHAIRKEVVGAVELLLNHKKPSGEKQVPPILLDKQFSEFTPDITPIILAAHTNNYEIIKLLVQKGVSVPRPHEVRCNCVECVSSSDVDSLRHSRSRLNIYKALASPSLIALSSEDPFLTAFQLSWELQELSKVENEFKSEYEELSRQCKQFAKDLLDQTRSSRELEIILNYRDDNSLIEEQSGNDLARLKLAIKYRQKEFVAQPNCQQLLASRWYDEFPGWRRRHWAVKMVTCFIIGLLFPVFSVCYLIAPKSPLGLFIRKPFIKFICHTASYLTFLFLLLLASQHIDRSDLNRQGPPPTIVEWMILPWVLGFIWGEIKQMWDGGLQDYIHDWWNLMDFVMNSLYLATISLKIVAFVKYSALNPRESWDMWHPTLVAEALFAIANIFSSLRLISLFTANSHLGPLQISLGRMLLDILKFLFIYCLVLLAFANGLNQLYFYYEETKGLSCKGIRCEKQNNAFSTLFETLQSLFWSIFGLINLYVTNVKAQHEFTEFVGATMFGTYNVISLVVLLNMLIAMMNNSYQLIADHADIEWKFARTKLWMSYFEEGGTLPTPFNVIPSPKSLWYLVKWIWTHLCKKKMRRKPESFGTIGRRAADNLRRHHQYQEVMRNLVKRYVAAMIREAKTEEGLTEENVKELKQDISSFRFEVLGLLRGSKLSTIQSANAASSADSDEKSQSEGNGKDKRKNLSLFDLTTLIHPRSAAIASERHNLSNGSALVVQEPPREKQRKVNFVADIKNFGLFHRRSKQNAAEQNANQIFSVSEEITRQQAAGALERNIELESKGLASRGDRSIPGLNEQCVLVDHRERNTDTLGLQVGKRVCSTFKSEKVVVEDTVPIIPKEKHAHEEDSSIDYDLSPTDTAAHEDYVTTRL

[2] = target: T2, High affinity choline transporter 1 (Homo sapiens, UniProt Q9GZV3); experiment: CHT inhibitors, dose response, cell-based, 5-point CRC, membrane potential dye (AID 504840); format: functional
T2 sequence (Q9GZV3 whole entry): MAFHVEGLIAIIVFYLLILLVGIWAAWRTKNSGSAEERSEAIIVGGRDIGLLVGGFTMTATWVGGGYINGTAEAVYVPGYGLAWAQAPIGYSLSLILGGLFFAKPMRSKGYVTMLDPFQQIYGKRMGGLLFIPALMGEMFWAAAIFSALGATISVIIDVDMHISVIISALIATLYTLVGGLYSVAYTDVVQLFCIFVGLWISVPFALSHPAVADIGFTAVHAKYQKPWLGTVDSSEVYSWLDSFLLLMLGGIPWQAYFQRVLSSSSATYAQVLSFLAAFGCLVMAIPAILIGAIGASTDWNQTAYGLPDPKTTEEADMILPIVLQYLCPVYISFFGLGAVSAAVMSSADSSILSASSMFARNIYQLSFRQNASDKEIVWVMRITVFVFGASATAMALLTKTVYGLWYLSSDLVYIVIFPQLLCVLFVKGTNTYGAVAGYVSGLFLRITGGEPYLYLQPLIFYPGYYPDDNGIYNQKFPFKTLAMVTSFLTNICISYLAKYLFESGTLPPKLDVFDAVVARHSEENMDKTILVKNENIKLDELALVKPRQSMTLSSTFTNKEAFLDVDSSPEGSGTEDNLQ

[3] = microbe, parasite or virus in culture; format: functional; settings: Mycobacterium tuberculosis
[4] = human group III sPLA2 inhibitors, dose response, biochemical, QFRET, IC50 (AID 743457);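 further: green fluorescence rise as the enzyme cleaves BODIPY PC-A2 in liposomes; potency for inhibition of the enzyme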
[5] = target: T3, Oxysterols receptor LXR-beta (Homo sapiens, UniProt P55055); format: functional, cell-based
T3 sequence (P55055 whole entry): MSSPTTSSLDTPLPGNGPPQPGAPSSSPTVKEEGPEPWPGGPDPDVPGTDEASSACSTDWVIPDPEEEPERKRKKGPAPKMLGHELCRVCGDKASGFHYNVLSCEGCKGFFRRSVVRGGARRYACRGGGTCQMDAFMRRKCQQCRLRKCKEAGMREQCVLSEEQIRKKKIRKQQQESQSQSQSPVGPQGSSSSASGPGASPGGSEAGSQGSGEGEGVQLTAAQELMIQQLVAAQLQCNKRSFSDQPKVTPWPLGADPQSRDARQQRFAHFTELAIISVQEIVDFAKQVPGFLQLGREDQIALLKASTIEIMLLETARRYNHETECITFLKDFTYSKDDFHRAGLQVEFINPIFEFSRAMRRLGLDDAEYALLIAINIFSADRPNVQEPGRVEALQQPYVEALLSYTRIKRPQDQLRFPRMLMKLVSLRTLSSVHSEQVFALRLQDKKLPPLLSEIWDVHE

[6] = target: T4, Ubiquitin carboxyl-terminal hydrolase BAP1 (Homo sapiens, UniProt Q92560); experiment: BAP1 deubiquitinase inhibitors, dose response, biochemical (AID 714); format: functional
T4 sequence (Q92560 whole entry): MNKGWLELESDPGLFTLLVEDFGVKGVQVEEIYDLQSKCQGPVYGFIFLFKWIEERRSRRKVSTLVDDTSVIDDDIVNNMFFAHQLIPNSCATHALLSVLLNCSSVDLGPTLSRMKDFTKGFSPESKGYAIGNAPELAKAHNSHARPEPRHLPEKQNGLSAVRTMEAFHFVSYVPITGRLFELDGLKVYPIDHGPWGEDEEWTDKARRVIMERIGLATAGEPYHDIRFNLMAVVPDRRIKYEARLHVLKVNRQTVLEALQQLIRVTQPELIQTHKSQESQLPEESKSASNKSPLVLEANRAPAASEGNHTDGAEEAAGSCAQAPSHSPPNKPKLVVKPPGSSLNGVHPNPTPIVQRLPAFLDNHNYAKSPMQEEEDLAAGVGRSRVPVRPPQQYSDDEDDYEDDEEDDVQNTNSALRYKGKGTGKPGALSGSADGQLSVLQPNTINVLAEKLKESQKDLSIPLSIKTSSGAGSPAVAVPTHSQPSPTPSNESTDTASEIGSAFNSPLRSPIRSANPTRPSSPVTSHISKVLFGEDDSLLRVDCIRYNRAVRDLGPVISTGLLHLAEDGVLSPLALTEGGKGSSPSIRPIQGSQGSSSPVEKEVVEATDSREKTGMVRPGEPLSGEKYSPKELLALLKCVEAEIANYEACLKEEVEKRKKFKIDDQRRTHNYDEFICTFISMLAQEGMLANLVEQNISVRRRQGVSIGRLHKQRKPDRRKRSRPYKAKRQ

[7] = target: T5, Heat shock factor protein 1 (Mus musculus, UniProt P38532); experiment: inhibition of MG132-induced HSE-luciferase signal, confirmation, cell-based, NIH3T3, luminescence, dose retest (AID 2382); format: functional;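 further: NIH3T3 fibroblasts with HSF1-driven luciferase reporter stressed by proteasome inhibitor MG132; luminescence from HSF1-driven luciferase expression after 8 hours of MG132 stress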
T5 sequence (P38532 whole entry): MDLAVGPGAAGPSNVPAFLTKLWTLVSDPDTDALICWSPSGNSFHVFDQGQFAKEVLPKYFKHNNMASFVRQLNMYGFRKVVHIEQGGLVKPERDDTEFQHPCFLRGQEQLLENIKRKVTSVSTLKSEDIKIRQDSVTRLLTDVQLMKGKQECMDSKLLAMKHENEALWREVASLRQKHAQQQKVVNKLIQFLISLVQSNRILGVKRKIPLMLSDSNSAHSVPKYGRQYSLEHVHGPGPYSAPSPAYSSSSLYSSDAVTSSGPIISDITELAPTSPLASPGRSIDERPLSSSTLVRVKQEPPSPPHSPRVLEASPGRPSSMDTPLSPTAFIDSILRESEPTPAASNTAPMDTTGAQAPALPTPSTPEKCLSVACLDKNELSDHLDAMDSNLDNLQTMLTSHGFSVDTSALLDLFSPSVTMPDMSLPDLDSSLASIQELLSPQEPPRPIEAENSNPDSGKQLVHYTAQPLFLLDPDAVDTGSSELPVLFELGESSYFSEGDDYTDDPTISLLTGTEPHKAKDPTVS

[8] = off-target signal loss in HeLa-CEM21 co-culture – HeLa F-luc CTL cells, cherry-picked, counter-screen for HIV-1 Env fusion inhibitor project, dose response (AID 652040); format: functional, cell-based;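 further: potency for signal decrease marking cytotoxic or nonspecific inhibition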
[9] = inhibitors of clade B AD8 Env fusion, dose response, cell-based, cherry-pick (AID 652062); format: functional;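 further: luciferase signal from cell-cell fusion driven by HIV-1 clade B AD8 Env; potency is for inhibitors of fusion seen as a drop in luminescence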
[10] = target: T6, Tyrosine-protein phosphatase non-receptor type 7 (Homo sapiens, UniProt P35236); experiment: inhibitors of human HePTP phosphatase, […], biochemical, absorbance, leukemia target (AID 521); format: functional
T6 sequence (P35236 whole entry): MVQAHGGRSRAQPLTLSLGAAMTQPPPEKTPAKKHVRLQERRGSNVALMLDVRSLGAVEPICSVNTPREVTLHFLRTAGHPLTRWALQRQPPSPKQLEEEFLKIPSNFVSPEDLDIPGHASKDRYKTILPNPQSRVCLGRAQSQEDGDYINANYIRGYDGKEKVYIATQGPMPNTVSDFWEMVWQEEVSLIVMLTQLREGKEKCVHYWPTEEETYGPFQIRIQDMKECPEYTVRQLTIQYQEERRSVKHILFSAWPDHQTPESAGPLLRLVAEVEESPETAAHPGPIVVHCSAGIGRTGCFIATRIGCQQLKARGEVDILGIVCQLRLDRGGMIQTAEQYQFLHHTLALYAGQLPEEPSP

[11] = inhibitors of HIV Env-driven cell fusion, dose response, cherry-pick (AID 652057); format: functional, cell-based
[12] = ZM109 Env clade C HIV-1 fusion inhibitors, dose response, HeLa effector, CEM target cells, luciferase, cherry-pick (AID 652058); format: functional, cell-based
[13] = target: T3, Oxysterols receptor LXR-beta; format: functional, cell-based; remark: listed apart in the source
[14] = NIH:OVCAR-3 ovarian cancer cell cytotoxicity, dose response, PAX8 inhibitor project, plate reader, dry powder samples (AID 743044); format: functional, cell-based
[15] = non-specific cell cytotoxicity, dose response, cytotoxicity control for PAX8 inhibitor project, plate reader, dry powder samples (AID 743021); format: functional, cell-based
[16] = cytotoxicity in OVCAR8 ovarian cancer cells, dose response, PAX8 project, cell-based, plate reader, dry powder samples (AID 743197); format: functional; settings: OVCAR-8
Paired box protein Pax-8 = Paired box protein Pax-8 (Homo sapiens, UniProt Q06710); experiment: inhibitors of PAX8-driven TPO luciferase reporter, dose response, RMG-I cells, cherry-pick (AID 687027); format: functional, cell-based;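 further: luciferase reporter driven by Pax8 target thyroperoxidase promoter measured by SteadyGlo luminescence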
[17] = inhibitors of firefly luciferase expression or activity, dose response, H4 neuroglioma cells, luminescence (AID 1990); format: functional, cell-based
[18] = cytotoxicity in HEK-293T cells, dose response, cytotoxicity control for TCR NF-kB inhibitor project, luminescence, T-cell screen hits (AID 489026); format: functional, cell-based;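 further: cells exposed to compound about 14 hours before the viability readout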
[19] = Luminescence Cell-Based Dose Response HTS to Identify Inhibitors of 5'UTR Stem-Loop Driven Prion Protein mRNA Translation in H4 Neuroglioblastoma Cells. [Related pubchem assays: 1827 (Project Summary), 1813 (Primary HTS)]; format: functional
[20] = inhibitors of SNCA 5'UTR-driven reporter translation, confirmation, H4 neuroglioma cells, luminescence (AID 1988); format: functional, cell-based

Sequence of Paired box protein Pax-8 (Q06710 whole entry): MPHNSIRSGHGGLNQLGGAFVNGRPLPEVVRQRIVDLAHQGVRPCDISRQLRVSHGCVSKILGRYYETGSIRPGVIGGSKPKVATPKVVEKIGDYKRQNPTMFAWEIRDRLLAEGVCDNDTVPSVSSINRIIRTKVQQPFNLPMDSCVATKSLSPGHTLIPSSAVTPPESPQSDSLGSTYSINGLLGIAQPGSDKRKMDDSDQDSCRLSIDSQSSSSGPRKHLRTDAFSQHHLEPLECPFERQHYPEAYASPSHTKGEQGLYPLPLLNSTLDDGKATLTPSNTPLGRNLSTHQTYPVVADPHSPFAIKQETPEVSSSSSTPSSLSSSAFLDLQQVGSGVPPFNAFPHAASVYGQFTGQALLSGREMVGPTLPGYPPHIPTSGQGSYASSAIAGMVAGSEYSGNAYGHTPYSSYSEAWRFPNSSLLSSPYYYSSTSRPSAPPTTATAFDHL

Structure (SMILES): Cc1cccc(C(=O)NNC(=S)NC(=O)c2ccccc2)c1
- CC50 (Vero): > 25 µM (active)
- EC50 [1]: 2.11 µM (active)
- IC50 [2]: 7.59 µM (active)
- CC50 [3]: 24 µM (active)
- IC50 [4]: > 122 µM (inactive)

Structure (SMILES): Nc1cccc2c1C(=O)N(CCOc1ccccc1F)C2=O
- EC50 (cells): > 67.6 µM (inactive)
- EC50 [5]: > 67.6 µM (inactive)

Structure (SMILES): CCOC(=O)c1c(NC(=O)c2cccs2)sc(C)c1CC
- IC50 [6]: 30.4 µM (not active)

Structure (SMILES): c1ccc2c(c1)OCC(c1csc3ncnc(N4CCOCC4)c13)O2 (stereo not given)
- EC50 [7]: 171 µM (active)
- AC50 [8]: 21.4 µM (active)
- AC50 [9]: 4.95 µM (active)
- IC50 [10]: > 100 µM (not active)
- AC50 [11]: 4.1 µM (active)
- AC50 [12]: 11.6 µM (active)

Structure (SMILES): Cc1c(-c2ccccn2)c(=O)[nH]n1-c1ccc(F)cc1
- EC50 (cells): > 67.5 µM (inactive)
- EC50 [5]: > 67.5 µM (inactive)

Structure (SMILES): Cc1ccc(N=C2Nc3ccccc3CS2)cc1
- EC50 [5]: > 67.5 µM (inactive)

Structure (SMILES): Cc1ccc(NC2=Nc3ccccc3CS2)cc1
- EC50 (cells): > 67.5 µM (inactive)

Structure (SMILES): OCCNc1ncnc2c1c(-c1ccccc1)c(-c1ccccc1)n2Cc1ccco1
- IC50 [10]: > 100 µM (not active)

Structure (SMILES): CCOC(=O)c1cnc(SCC(=O)Nc2sc(C)c(C)c2C#N)nc1N
- IC50 [6]: 18.7 µM (active)

Structure (SMILES): CC(C)C(OC(=O)c1cccs1)C(=O)NCc1ccco1 (stereo not given)
- IC50 [10]: > 100 µM (not active)

Structure (SMILES): CC(C)C[C@H](NC(=O)OCC1c2ccccc2-c2ccccc21)C(=O)O
- EC50 [13]: > 67.5 µM (inactive)

Structure (SMILES): C[C@@H]1CN([C@@H](C)CO)C(=O)c2cc(NC(=O)Nc3ccc(F)cc3)ccc2O[C@@H](C)CCCCO[C@H]1CN(C)Cc1ccc(C(F)(F)F)cc1
- AC50 [14]: 16.3 µM (active)
- AC50 [15]: 1.84 µM (active)
- AC50 [16]: 51.7 µM (active)
- AC50 (Paired box protein Pax-8): 6.74 µM (active)

Structure (SMILES): C[C@H](CO)N1C[C@H](C)[C@H](CN(C)S(=O)(=O)c2ccc(Cl)cc2)OCCCC[C@H](C)Oc2ccc(NC(=O)Nc3ccc(C(F)(F)F)cc3)cc2C1=O
- AC50 [14]: 60 µM (active)
- AC50 [15]: 34.6 µM (active)
- AC50 (Paired box protein Pax-8): 4.52 µM (active)

Structure (SMILES): COc1ccc(/C=c2/sc3n(c2=O)C(c2ccccc2OC)C2=C(N=3)c3ccccc3CC2)cc1O (stereo not given)
- AC50 [15]: 52 µM (active)
- EC50 [17]: 0.112 µM (active)
- IC50 [18]: > 80 µM (inactive)
- EC50 [19]: 13.9 µM (active)
- AC50 (Paired box protein Pax-8): 2.28 µM (active)
- EC50 [20]: 0.403 µM (active)
